In patent US12522614B2, “Topical phosphoinositide 3-kinase inhibitors” (VENTHERA, INC., priority 2019, dated 2026):
“Also recorded” adds a separate entry of the source.

Tests used:
[1] = In vitro skin permeation study, mouse skin vs. human skin; assay type: in vitro ADME; conditions: Example 8 gel
Procedure: The gel formulation of Example 8 was used to determine the skin permeation through human and mouse skin. It is important to understand the permeation difference between the two types of skin, because mouse skin is used extensively in toxicology studies as well as in early in vivo studies. The skin permeation study was performed in accordance with the method as described in Example 9.

[2] = Six-month stability study of topical gel formulations including Compound 1.002; assay type: physicochemical; conditions: 40° C./75% RH
Procedure: Unless otherwise indicated, a HPLC method was used to determine the content of Compound 1.002 and impurities; ASTM D 1544 was used as the standard test method for color of gel formulations; a gas chromatographic method was used to determine the content of oleic acid; and Brookfield viscometer was used to measure viscosity (cP) of gel formulations.
The gel formulation in HPLC glass vials was subjected to stability study at 40° C./75%0 RH for 6 months. A purity of Compound 1.002 on month 0, 1, 3, and 6 month at 40° C./75% RH was determined by HPLC. The detected impurity of Compound 1.002 appears to be the hydrolysis product, as MTPP. Table 21 represents stability data of Compound 1.002 in the topical formulation having […]. […]
The gel formulation in Lablabo Amcor Foil 18 mL containers was subjected to stability study at 40° C./75% RH for 6 months. A purity of Compound 1.002 on month 0, 1, 3, 4, 5, and 6 month at 40° C./75% RH was determined by HPLC. The detected impurity of Compound 1.002 appears to be the hydrolysis product, as MTPP. Table 25 represents stability data of Compound 1.002 in the topical formulation having 10% oleic alcohol and 40% DPG. […]

[3] = Table 20 gel (10% oleic acid, DPG), HPLC glass vials, month 0
[4] = Table 20 gel (10% oleic acid, DPG), HPLC glass vials, month 1
[5] = Table 20 gel (10% oleic acid, DPG), HPLC glass vials, month 3
[6] = Table 20 gel (10% oleic acid, DPG), HPLC glass vials, month 6
[7] = Table 24 gel (10% oleyl alcohol, 40% DPG), Lablabo Amcor Foil 18 mL containers, month 0
[8] = Table 24 gel (10% oleyl alcohol, 40% DPG), Lablabo Amcor Foil 18 mL containers, month 1
[9] = Table 24 gel (10% oleyl alcohol, 40% DPG), Lablabo Amcor Foil 18 mL containers, month 3
[10] = Table 24 gel (10% oleyl alcohol, 40% DPG), Lablabo Amcor Foil 18 mL containers, month 4
[11] = Table 24 gel (10% oleyl alcohol, 40% DPG), Lablabo Amcor Foil 18 mL containers, month 5

What does the source list for CC(=O)Oc1cccc(-c2nc(N3CCOCC3)c3sccc3n2)c1 [Compound 1.002, 3-(4-Morpholinothieno[3,2-d]pyrimidin-2-yl)phenyl Acetate]?
Permeation through mouse skin compared with human skin ([1]; 48 hours, FIG. 5): approximately three times higher; Metabolism of Compound 1.002 to MTPP in human and mouse skin ([1]; both skin types): proceeded equally well; Appearance [2, 3]: Clear,; also recorded: no crystals; Compound 1.002 Relative Purity [2, 3]: 100.0%; Compound 1.002 content [2, 3]: 106.6 mg/mL; MTPP (Relative Purity) [2, 3]: 0.0%; Other impurity (Relative Purity) [2, 3]: 0.0%; Viscosity [2, 3]: 11,800 cP; Appearance [2, 4]: Clear,; also recorded: no crystals; Compound 1.002 Relative Purity [2, 4]: 98.4%; Compound 1.002 content [2, 4]: 106.0 mg/mL; MTPP (Relative Purity) [2, 4]: 1.2%; Other impurity (Relative Purity) [2, 4]: 0.4%; Viscosity [2, 4]: 12,600 cP; Appearance [2, 5]: Clear,; also recorded: no crystals; Compound 1.002 Relative Purity [2, 5]: 97.5%; Compound 1.002 content [2, 5]: 107.0 mg/mL; MTPP (Relative Purity) [2, 5]: 2.5%; Other impurity (Relative Purity) [2, 5]: 0.0%; Viscosity [2, 5]: 11,780 cP; Appearance [2, 6]: Clear,; also recorded: no crystals; Compound 1.002 Relative Purity [2, 6]: 95.1%; Compound 1.002 content [2, 6]: 109.1 mg/mL; MTPP (Relative Purity) [2, 6]: 4.9%; Other impurity (Relative Purity) [2, 6]: 0.0%; Viscosity [2, 6]: 12,760 cP; Compound 1.002 Relative Purity [2, 7]: 100%; Compound 1.002 content [2, 7]: 65.9 mg/mL; MTPP (Relative Purity) [2, 7]: 0.0%; Visual Appearance [2, 7]: no crystals; Compound 1.002 Relative Purity [2, 8]: 98.9%; Compound 1.002 content [2, 8]: 66.5 mg/mL; MTPP (Relative Purity) [2, 8]: 1.1%; Visual Appearance [2, 8]: no crystals; Compound 1.002 Relative Purity [2, 9]: 99.0%; Compound 1.002 content [2, 9]: 65.9 mg/mL; MTPP (Relative Purity) [2, 9]: 1.0%; Visual Appearance [2, 9]: no crystals; Compound 1.002 Relative Purity [2, 10]: 97.0%; Compound 1.002 content [2, 10]: 66.5 mg/mL; MTPP (Relative Purity) [2, 10]: 3.0%; Visual Appearance [2, 10]: no crystals; Compound 1.002 Relative Purity [2, 11]: 97.3%; Compound 1.002 content [2, 11]: 67.8 mg/mL; MTPP (Relative Purity) [2, 11]: 2.7%; Visual Appearance [2, 11]: no crystals; Compound 1.002 Relative Purity ([2]; Table 24 gel (10% oleyl alcohol, 40% DPG), Lablabo Amcor Foil 18 mL containers, month 6): 90.0%
